Assay results taken from paper PMC5598135 (Toxicology Reports, 2014).

Molecular target: mTOR kinase (Homo sapiens, UniProt P42345)
Experiment: cell-free ELISA kinase assay
Format: biochemical

IC50: 6 nM
Structure (SMILES): O=C1NC(c2cccc3ncccc23)Nc2ccccc21 (stereo not shown) [DQQ, 2,3-dihydro-2-(quinoline-5-yl) quinazolin-4(1H)-one]
